These results are taken from patent US20170152285A1, “EXTRACTING METHOD OF KUGUACIN, PHARMACEUTICAL COMPOSITION COMPRISING THE KUGUACIN AND USE THEREOF” (priority 2015, published 2017).

Assay [1] deals with iNOS. Briefly: Periodontitis mouse model, iNOS mRNA in gum tissue. Format: in vivo, C57BL/6 mice. The following applies: injected into gum tissue with P. gingivalis, day 14.
For assay [2], the system named is COX-2. Nature of the assay: Periodontitis mouse model, COX-2 mRNA in gum tissue. The note with it: 5 μg injected into gum tissue, day 14. It is filed as in vivo, C57BL/6 mice. On the procedure: (§1) To assess the effect of kuguacin on anti-inflammation in vivo, 6-week old C57BL/6 male mice were used in the present embodiment. The mice were purchased from Laboratory Animal Center of National Taiwan University, and fed with commercial chow diet and drinking water. After free access of food for 7 days, the mice were grouped for experiments, five animals for each group.
(§2) The concentration of P. gingivalis was adjusted to 1×10^9 CFU/mL by steriled PBS, then centrifuged at 10,000 rpm for 5 min. After removing the supernatant, the pellet was heated in water bath at 80° C. for 30 mins.
(§3) According to the method provided in the reference by Molon et al. to establish animal experiment model. Heat-killed P. gingivalis was injected into the gum tissue of C57BL/6 mice to cause inflammation. The mice were anesthetized by ethylether. Samples and bacteria solution were withdrawn using 0.3-mL insulin syringe needle. 10 μL of bacteria and samples were injected into the gum tissue of the mice. If blisters appeared, the injection was successful. […]
(§4) After sacrificing the mice at the 14th day of the experiment, the gums of lower jaw of the mice were sampled and the gene expressions of COX-2, IL-6 and TNF-α therein were analyzed.

Assay [3] has as its system IL-8. Briefly: Anti-inflammatory activity assay, IL-8 ELISA, THP-1 co-cultured with P. gingivalis. Format: cell-based, Human. The following applies: for inhibiting the expression of IL-8 induced by P. gingivalis: 1 μM to 5 μM, dose-dependent. On the procedure:
(§5) P. gingivalis (ATCC 33277/BCRC 14417) purchased from Bioresource Collection and Research Center of Food Industry Research and Development Institute in Hsinchu. P. gingivalis was incubated with TSB medium in an anaerobic incubator at 37° C. in an atmosphere of 86% of N2, 10% of CO2 and 4% of H2. The TSB medium comprises 15 g of Tryptic Soy broth (Becton, Dicksinson and company, U.S.A.), 2.5 g of yeast extract, 0.5 mL of Hemin and 0.1 mL of Vitamin K dissolved in 500 mL of deionized H2O.
(§6) THP-1 cell line (2×10^6 cells/mL) cultured by the method described in Example 3 was placed into a 96-well plate, and then 100 μL of RPMI medium without P. gingivalis was added or 0.1% dimethyl sulfoxide (DMSO) containing P. gingivalis with its multiplicity of infection (MOI) of 10 was added as negative controls. Different concentrations of samples from Examples 1 and 2 were added or luteolin (10 μM) was added as positive control. After co-culturing in an incubator at 37° C. in 5% of CO2 for 24 hours, the supernatants were collected. Then, the levels of IL-6 and IL-8 were analyzed by commercial ELISA kits for IL-6 and IL-8 (Invitrogen).
(§7) The term “MOI” is multiplicity of infection which means the number of the bacteria infecting each cell (the number of bacteria/the number of cells). For example, MOI=1 refers to every cell was infected by one bacterial colony.

The test system of assay [4] is IL-6. Briefly: Anti-inflammatory activity assay, IL-6 ELISA, THP-1 co-cultured with P. gingivalis. It is filed as cell-based, Human. The note with it: for inhibiting the expression of IL-6 induced by P. gingivalis: 1 μM to 5 μM, dose-dependent. On the procedure: as §5, §6, §7
For orientation: An ELISA detects its analyte on a solid surface through an enzyme-linked reagent.

In assay [5] the test system is TNF-α. Briefly: Periodontitis mouse model, TNF-α mRNA in gum tissue. The following applies: 5 μg injected into gum tissue, day 14. Format: in vivo, C57BL/6 mice. On the procedure: as §1, §2, §3, §4
Assay [6] has as its system p-ERK, p-JNK and p-p38. Nature of the assay: Western blot of phosphorylated MAPK proteins in THP-1 induced by P. gingivalis. The following applies: 1 μM to 5 μM, induced by P. gingivalis for 30 mins, dose-dependent. Format: cell-based, Human. The procedure:
(§8) To analyze the effect of the M. charantia extract on phosphorylation of MAPK proteins, THP-1 cell line cultured by the method described in Example 3 (2×10^6 cells/mL) was inoculated in 6-cm petridishes. Every 200 μL of cell culture was added 800 μL of fresh media containing DMSO with P. gingivalis (MOI=10), different concentrations of samples from Examples 1 and 2 or luteolin ([…]) and then co-cultured in a incubator at 37° C. in 5% of CO2 for 30 mins. Next, the cells were collected and centrifuged to remove the supernatant. After adding phosphate buffer solution (PBS), the collected cells were shook and washed repeatedly for 3 times. Then 100 μL of 1× lysis buffer was added in. The mixture was centrifuged at 12,000 rpm and 4° C. for 15 mins, and the supernatant was collected. The protein was quantified to the identical concentration. After protein electrophoresis was conducted, Western blot was conducted to analyze the level of phosphorylated ERK, JNK and p38 (i.e. p-ERK, p-JNK and p-p38).
For orientation: In western blotting, separated proteins are transferred to a membrane and probed.

The test system of assay [7] is IL-6. Nature of the assay: Periodontitis mouse model, IL-6 mRNA in gum tissue. Format: in vivo, C57BL/6 mice. The note with it: 5 μg injected into gum tissue, day 14. On the procedure:
as §1, §2, §3, §4

Assay [8] concerns ERK. Briefly: Western blot of phosphorylated ERK in THP-1 induced by P. gingivalis. The note with it: 10 μM and 20 μM, induced by P. gingivalis for 30 mins. It is filed as cell-based, Human. On the procedure:
as §8

With `C[C@H](C/C=C/C(C)(C)O)[C@H]1CC[C@@]2(C)[C@@H]3[C@@H](O)C=C4[C@@H](CC[C@H](O)C4(C)C)[C@]3(C=O)CC[C@]12C` [fraction 5212, 3,7,25-trihydroxycucurbita-5,23-dien-19-al], the “mRNA expression of iNOS in gum tissue” value in assay [1] was “increase”. For the same compound, in assay [2], the “mRNA expression of COX-2 in gum tissue, compared to group induced by P. gingivalis as 100%” value was 49%. For the same compound, the “inhibiting the expression of IL-8 induced by P. gingivalis” value in assay [3] is given as “effective on inhibiting”. Moreover, the “inhibiting the expression of IL-6 induced by P. gingivalis” value in assay [4] was “effective on inhibiting”. In addition, the “mRNA expression of TNF-α in gum tissue, compared to group induced by P. gingivalis as 100%” value in assay [5] came to 67%. The “phosphorylation of the signal transduction proteins (p-ERK, p-JNK, p-p38) in THP-1 cells” value in assay [6] is on record as “reduced”. Further, the “mRNA expression of IL-6 in gum tissue, compared to group induced by P. gingivalis as 100%” value in assay [7] was found to be 67%.

As to `C=C(C)/C=C/C[C@@H](C)[C@H]1CC[C@@]2(C)[C@@H]3C=C[C@@]45O[C@@H](O)[C@]3(CC[C@]12C)[C@@H]4CC[C@H](O)C5(C)C` [fraction 532, 5β,19-epoxycucurbita-6,23(E),25(26)-triene-3β,19(R)-diol], in assay [8], the “inhibiting the phosphorylation of ERK” value is given as “effective in inhibiting”. Further, the “inhibiting the expression of IL-8 by THP-1 cell line” value in assay [3] (5 μM to 20 μM) is reported as “effective on inhibiting”. Further, the “inhibiting the expression of IL-6 by THP-1 cell line” value in assay [4] (5 μM to 20 μM) is on record as “effective on inhibiting”.

Consider `CC(CC=CC(C)(C)O)C1CCC2(C)C3C=CC45OC(O)C3(CCC12C)C4CCC(O)C5(C)C` (centres unmarked) [fraction 5211, 5,19-epoxycucurbita-6,23-diene-3,19,25-triol], for which the “mRNA expression of iNOS in gum tissue” value in assay [1] is listed as “increase”. Further, the “mRNA expression of COX-2 in gum tissue, compared to group induced by P. gingivalis as 100%” value in assay [2] turned out to be 31%. In addition, the “inhibiting the expression of IL-8 induced by P. gingivalis” value in assay [3] was “effective on inhibiting”. In addition, the “inhibiting the expression of IL-6 induced by P. gingivalis” value in assay [4] is on record as “effective on inhibiting”. Further, in assay [5], the “mRNA expression of TNF-α in gum tissue, compared to group induced by P. gingivalis as 100%” value is on record as 40%. Moreover, the “phosphorylation of the signal transduction proteins (p-ERK, p-JNK, p-p38) in THP-1 cells” value in assay [6] is given as “reduced”. In addition, in assay [7], the “mRNA expression of IL-6 in gum tissue, compared to group induced by P. gingivalis as 100%” value was 34%.
